{
  "source": "paper PMC7439263",
  "about": "(ACS Omega, 2020)",
  "key": {"[1]": {"conditions": "in vivo ref 49; cited from earlier work"}, "α-glucosidase": {"system": "α-glucosidase", "conditions": "cited from earlier work"}, "α-amylase": {"system": "α-amylase", "conditions": "cited from earlier work"}, "[2]": {"system": "α-Glucosidase (from Saccharomyces cerevisiae)", "test": "Assay for α-glucosidase inhibitory activity", "assay_type": "biochemical", "conditions": "for IC50: read-out: IC50 α-glucosidase, mean ± SD (n = 3); for α-glucosidase inhibitory activity compared to acarbose (in words): Figure 3, 150 μM, p < 0.05; for total activity α-glucosidase: total activity = amount (mg/kg)/IC50 (mg/mL)"}, "[3]": {"biological_target": "T1, α-amylase (from the porcine pancreas) (Sus scrofa, UniProt P00690)", "T1 sequence (P00690 16-511)": "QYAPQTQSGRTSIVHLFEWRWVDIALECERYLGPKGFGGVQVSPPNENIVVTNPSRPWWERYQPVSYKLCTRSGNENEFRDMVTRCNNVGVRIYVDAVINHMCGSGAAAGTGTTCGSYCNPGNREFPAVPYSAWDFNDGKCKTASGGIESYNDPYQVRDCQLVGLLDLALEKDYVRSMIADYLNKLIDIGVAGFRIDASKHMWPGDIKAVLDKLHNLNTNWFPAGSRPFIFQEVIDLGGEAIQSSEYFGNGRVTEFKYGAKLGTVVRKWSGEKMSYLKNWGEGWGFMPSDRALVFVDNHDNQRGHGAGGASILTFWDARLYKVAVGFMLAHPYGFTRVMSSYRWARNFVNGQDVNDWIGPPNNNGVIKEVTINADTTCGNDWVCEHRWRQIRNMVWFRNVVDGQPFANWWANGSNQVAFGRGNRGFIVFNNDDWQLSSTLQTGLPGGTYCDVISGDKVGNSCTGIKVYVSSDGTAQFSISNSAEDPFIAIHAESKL", "test": "biochemical", "assay_type": "biochemical", "conditions": "for IC50: IC50 α-amylase, mean ± SD (n = 3)"}, "glycogen phosphorylase": {"system": "glycogen phosphorylase", "conditions": "cited from earlier work"}, "[4]": {"system": "α-Glucosidase (from Saccharomyces cerevisiae)", "test": "Inhibitory kinetics analysis against the α-glucosidase enzyme", "assay_type": "biochemical", "conditions": "Lineweaver–Burk plot analysis, sucrose substrate"}, "glycogenic enzymes": {"system": "glycogenic enzymes", "conditions": "rats ref 47; cited from earlier work"}, "[5]": {"conditions": "STZ-induced diabetic rats ref 46; cited from earlier work"}},
  "data": [
    {"smiles": "C[C@H]1[C@H](C)CC[C@]2(C(=O)O)CC[C@]3(C)C(=CC[C@@H]4[C@@]5(C)C[C@@H](O)[C@H](O)C(C)(C)[C@@H]5CC[C@]43C)[C@H]12", "note": "[corosoric acid]", "values": [
      {"measurement": "post-challenge plasma glucose levels", "setting": "[1]", "value": "significant effect on lowering post-challenge plasma glucose levels"},
      {"measurement": "α-glucosidase inhibitory activity in vitro (in words)", "setting": "α-glucosidase", "value": "strong inhibitory activity"},
      {"measurement": "α-amylase inhibitory activity in vitro (in words)", "setting": "α-amylase", "value": "strong inhibitory activity"}
    ]},
    {"smiles": "OCCc1ccc(O)c(O)c1", "note": "[hydroxytyrosol 7, hydroxytyrosol]", "values": [
      {"measurement": "α-glucosidase inhibitory activity at highest tested concentration", "setting": "[2]; 1000 μM", "value": "less than 10%"},
      {"measurement": "IC50", "setting": "[2]", "value": "> 1000", "unit": "µM"},
      {"measurement": "IC50", "setting": "[3]", "value": "> 500", "unit": "µM"},
      {"measurement": "inhibition at 500 µM", "setting": "[3]; read-out: α-amylase inhibitory activity at highest tested concentration", "value": "< 10", "unit": "%"}
    ]},
    {"smiles": "CC1(C)CC[C@]2(C(=O)O)CC[C@]3(C)C(=CC[C@@H]4[C@@]5(C)C[C@@H](O)[C@H](O)C(C)(C)[C@@H]5CC[C@]43C)[C@@H]2C1", "note": "[maslinic acid 2, maslinic acid]", "values": [
      {"measurement": "α-glucosidase inhibitory activity compared to acarbose (in words)", "setting": "[2]", "value": "higher than that of acarbose"},
      {"measurement": "IC50", "setting": "[2]", "value": "34.5 ± 1.4", "unit": "µM"},
      {"measurement": "total activity α-glucosidase", "setting": "[2]", "value": 11042.9},
      {"measurement": "α-amylase inhibitory activity compared to acarbose (in words)", "setting": "[3]", "value": "acarbose had higher activity than them"},
      {"measurement": "IC50", "setting": "[3]", "value": "67 ± 5.4", "unit": "µM"},
      {"measurement": "total activity α-amylase", "setting": "[3]; total activity = amount (mg/kg)/IC50 (mg/mL)", "value": 5678.2},
      {"measurement": "blood glucose levels / glycogen phosphorylase inhibition", "setting": "glycogen phosphorylase", "value": "reduce blood glucose levels by inhibiting glycogen phosphorylase"}
    ]},
    {"smiles": "CC1(C)CC[C@]2(C(=O)O)CC[C@]3(C)C(=CC[C@@H]4[C@@]5(C)CC[C@H](O)C(C)(C)[C@@H]5CC[C@]43C)[C@@H]2C1", "note": "[oleanolic acid 1, oleanolic acid]", "values": [
      {"measurement": "α-glucosidase inhibitory activity compared to acarbose (in words)", "setting": "[2]", "value": "higher than that of acarbose"},
      {"measurement": "total activity α-glucosidase", "setting": "[2]", "value": 5359.5},
      {"measurement": "inhibition type against α-glucosidase", "setting": "[4]", "value": "partial mixed inhibitor"},
      {"measurement": "inhibition type against α-glucosidase", "setting": "[4]; listed as 1", "value": "mixed-type"},
      {"measurement": "glycogen levels and glycogenic enzymes", "setting": "glycogenic enzymes", "value": "reduced glycogen levels and glycogenic enzymes"},
      {"measurement": "blood glucose levels", "setting": "[5]", "value": "lower blood glucose levels"}
    ]}
  ]
}
